Experimental data taken from patent US20130150430A1, “Methods for Impairing the P53/HDM2 Auto-Regulatory Loop in Multiple Myeloma Development Using mIR-192, mIR-194 and mIR-215” (THE OHIO STATE UNIVERSITY, priority 2011, published 2013).

Experiments:
GFP+/Luc+ MM1S cells = experiment: In vivo homing model, iv injected transfected MM1S cells plus weekly iv miRNA; design: species or system NOD-SCID mice; conditions: for tumor burden (bioluminescence imaging): 5 wk post-injection, 10 μg iv weekly for 4 wk, vs Scr; for bone marrow engraftment of MM1s (human CD-138+ cells by FACS): 35 days after injection, Scr-treated mice ~25±15%
Method: FIG. 7C: In vivo confocal imaging. 8×10^6GFP+/Luc+ MM1s cells were transfected using either pre-miRNA-192, miR-194, miR-215 and Scr RNA oligos and then iv injected into mice immediately after transfection. After 1 wk the mice were miRNAs iv injected (10 ug) once a wk for 4 wk and the bioluminescence intensity was assessed before every injection.
FIG. 7D: Representative bioluminescence imaging (BLD after 5 wk from the injection.
FIG. 7E: Bone marrow cells from the mice used for the experiment were isolated and human CD-138 positive cells (engrafted cells) were detected using anti-CD-138 antibody by flow cytometry (P2 fraction).
As shown in FIG. 7B and FIG. 21C, IGF-1 (50 ng/ml) stimulated migration of MM cells, MM1s and RPMI-8226. To further examine the role of miRNA-192, miR-215 and miR-194 in MM cells, the inventors investigated the effect of these miRNAs on migration in vivo, using a homing model (Roccaro et al., Blood, 113:6669-6680 (2009)). Nine NOD-SCID mice (for each group) were intravenously injected with 8×10^6 of pre-miRNA-192-, -194 and -215 or Scr probe-transfected GFP^+/Lue^+ MM1S cells. One wk later, mice were iv-injected every week for 4 wk with an individual miRNA or Scr dissolved in PBS (10 μg for each mouse).
Mice were injected with 75 mg/kg of Luciferin (Xenogen, Hopkington, Mass.), and tumor growth was detected by bioluminescence 10 min after the injection. The home-built bioluminescence system used an electron multiplying CCD (Andor Technology Limited, Belfast, United Kingdom) with an exposure time of 30 sec, and an electron multiplication gain of 500 voltage gain×200, 5-by-5 binning, and with background subtraction. Images were analyzed using Image-J software (National Institutes of Health, Bethesda, Md.).
Animal studies were performed according to institutional guidelines. For the sub-cutaneous engraftment model 8 wk old male athymic nu/nu mice (Charles River Laboratories, Wilmington, Mass.) were maintained in accordance with IACUC procedures and guidelines. 8×10^6 of GFP/Luc+MM1s cells were suspended in 0.10 ml of extracellular matrix gel (BD Biosciences) and the mixture was injected subcutaneously into the right flank. […] Measurements of xenograft growth were performed, and tumor volume was estimated using the formula 4/3 a (L*W*H/8). Tumor size was assessed by digital caliper. […] Tumor size was assessed every 7 days by, bioluminescence images. Thirty-five days after injection, mice were analyzed by bioluminescence images and then sacrificed. MM1s bone marrow isolated cells were stained with anti-human CD-138 antibody (BD) and analyzed by FACS analysis. Statistical significance of differences between control and treated animals was evaluated using Student's t test. […]

MM1s and NCI-H929 cells = experiment: Cell cycle analysis by flow cytometry; type: cell-based, human; conditions: 48 hr of transfection after nocodazole synchronization; scrambled-transfected ~30%
Method: (§1) FIG. 3G, FIG. 3H, FIG. 31, FIG. 3J: Flow cytometry analysis in MM1s (FIG. 3G), NCI-H929 (FIG. 3H) and KMS28BM (FIG. 31) cells (miR-192, miR-194, miR-215 and Scr transfected) at 48 hr of transfection, after first being arrested and synchronized in G2/M phase by Nocodazole for 16 hr. Apoptosis in KMS28BM was evaluated by caspase-3 activity (FIG. 3J). All experiments were performed in triplicate ±SD.
(§2) Nocodazole was (Sigma-Aldrich) was dissolved in DMSO as a stock solution of 10 mg/ml for cell cycle arrest in G2/M phase. Cells were first arrested and synchronized in G2/M phase by growth in 80 nM nocodazole for 16 hr. Cells were then washed and fresh medium added. After 6 hr, cell cycle analysis was performed by propidium iodide staining. Corresponding amounts of DMSO alone were added in control experiments. […] For DNA content analysis, cells were fixed in methanol at −20° C., washed again, rehydrated, re-suspended in PBS containing 50 μg/ml propidium iodide (PI) and 50 μg/ml RNase A, and analyzed by flow cytometry (Becton Dickinson). […] After the treatment the cells were analyzed using Caspase-Glo 3 Assay kit (Promega) according to the manufacturer's instructions. Continuous variables were expressed as mean values ± standard deviation (s.d.).

KMS-28BM cells = experiment: Cell cycle analysis by flow cytometry (sub-G1); type: cell-based, human; conditions: 48 hr after transfection; Scr control ~3%
Method: as §1, §2

MM1s cells = experiment: Caspase-3 activation assay with MI-219 in miRNA-transfected cells; type: cell-based, human; conditions: MI-219 in presence of the miRNA; p<0.001
Method: FIG. 5C: Apoptotic effect at different concentrations and time points for each miRNA transfected cells was assessed by caspase-3 activation assay.
Nocodazole was (Sigma-Aldrich) was dissolved in DMSO as a stock solution of 10 mg/ml for cell cycle arrest in G2/M phase. Cells were first arrested and synchronized in G2/M phase by growth in 80 nM nocodazole for 16 hr. Cells were then washed and fresh medium added. After 6 hr, cell cycle analysis was performed by propidium iodide staining. Corresponding amounts of DMSO alone were added in control experiments. In experiments involving transfection and MI-219 treatment, the cells were first transfected, incubated for 24 hr, and then treated with the chemotherapeutic drug for 24 hr. For DNA content analysis, cells were fixed in methanol at −20° C., washed again, rehydrated, re-suspended in PBS containing 50 μg/ml propidium iodide (PI) and 50 μg/ml RNase A, and analyzed by flow cytometry (Becton Dickinson). For detection of caspase 3 activity, KMS28BM and MM1s cells were cultured in 96-well plates and treated with Nutlin-3a. After the treatment the cells were analyzed using Caspase-Glo 3 Assay kit (Promega) according to the manufacturer's instructions. Continuous variables were expressed as mean values ± standard deviation (s.d.).

WT p53 MM cells = experiment: Colony suppression assay after lentiviral miRNA transduction; type: cell-based, human; conditions: lentivirus-transduced WT p53 cells; miR-34a internal control; scored at 14 days
Method: FIG. 3E, FIG. 3F: Soft agar colony suppression assay in WT TP53 and mutant TP53 MM cell lines after miRNAs transduction by lentivectors.
A total of 30×10^3 cells were infected with Lenti-mir-192: PMIRH 192-PA-1 Lenti-mir-194-1:PMIRH 1941PA-1; Lenti-mir-215:PMIRH 215 PA-1; Control Lentivector(pCDH-CMV-EFI-copGFP cDNA cloning and Expression vector): CD511 B-1 (System Biosciences) as per the manufacturer's protocol. MM cells were plated in quadruplicate in 1 mL of methylcellulose medium for Mouse cells (Cat#03234, Stem cell Technologies) in 6-well culture plates. Colonies consisting of more than 40 (125μ) cells were scored at 14 days.

| Substance | tumor burden (bioluminescence imaging) (GFP+/Luc+ MM1S cells) | bone marrow engraftment of MM1s (human CD-138+ cells by FACS) (GFP+/Luc+ MM1S cells) [%] | cells in G0/G1 arrest (MM1s and NCI-H929 cells) [%] | sub-G1 fraction (indicative of cell death) (KMS-28BM cells) [%] | caspase-3 activation induced by MI-219 (MM1s cells) | colony formation (WT p53 MM cells) |
| --- | --- | --- | --- | --- | --- | --- |
| miR-215: microRNA, p53-activated, down-regulated in MM; transfected as miRNA precursor (Ambion) or lentivector; SEQ ID NO:58 (AUGACCUAUGAAUUGACAGAC; listed as RNA, chemistry not given here; listed as Homo sapiens) | nearly nonexistent | 2±2 | ~60 | 30 | higher caspase-3 activation | suppressed colony formation to an extent comparable to miR-34a |
| miR-192: microRNA, p53-activated, down-regulated in MM; transfected as miRNA precursor (Ambion) or lentivector; SEQ ID NO:56 (CUGACCUAUGAAUUGACAGCC; listed as RNA, chemistry not given here; listed as Homo sapiens) | nearly nonexistent | 4±2 | ~60 | ~25 | higher caspase-3 activation | suppressed colony formation to an extent comparable to miR-34a |
